The structures appear in SMILES notation. pKi: −log10 of the molar value. Counter-ions that a name gives are not always drawn.

T1 sequence (P50406 whole entry): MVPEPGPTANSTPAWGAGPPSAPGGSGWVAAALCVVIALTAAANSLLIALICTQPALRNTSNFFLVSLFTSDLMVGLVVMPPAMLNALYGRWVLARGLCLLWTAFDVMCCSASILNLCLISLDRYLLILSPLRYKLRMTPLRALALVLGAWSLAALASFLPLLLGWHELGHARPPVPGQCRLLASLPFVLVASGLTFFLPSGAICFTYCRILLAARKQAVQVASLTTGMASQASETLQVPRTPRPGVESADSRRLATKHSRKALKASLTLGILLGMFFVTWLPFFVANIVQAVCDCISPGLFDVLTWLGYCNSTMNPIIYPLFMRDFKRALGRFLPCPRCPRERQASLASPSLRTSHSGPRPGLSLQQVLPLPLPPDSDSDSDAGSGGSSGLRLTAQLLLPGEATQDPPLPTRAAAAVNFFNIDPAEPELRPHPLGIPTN

One series concerns the target T1, human cloned 5-HT6 receptors (Homo sapiens, UniProt P50406).
T1 construct: expressed in transfected cells; host or cells: HeLa cells (membrane preparation)
The experiment in a line: Comparative evaluation of 5-HT6 binding affinity ([3H]-LSD displacement, Hela cell membranes).
Settings: not given
How it is done: Comparative Evaluation of 5-HT6 Binding Affinity of Test Compounds
The affinity of test compounds for the 5-HT6 receptor is evaluated in the following manner. Cultured Hela cells expressing human cloned 5-HT6 receptors are harvested and centrifuged at low speed (1,000×g) for 10.0 min to remove the culture media. The harvested cells are suspended in half volume of fresh physiological phosphate buffered saline (PBS) solution and recentrifuged at the same speed. This operation is repeated. The collected cells are then homogenized in ten volumes of 50 mM Tris.HCl (pH 7.4) and 0.5 mM EDTA. The homogenate is centrifuged at 40,000×g for 30.0 min, and the precipitate is collected. The obtained pellet is resuspended in 10 volumes of Tris.HCl buffer and recentrifuged at the same speed. The final pellet is suspended in a small volume of Tris.HCl buffer, and the tissue protein content is determined in aliquots of 10-25 microliter volumes. Bovine Serum Albumin is used as the standard in the protein determination according to the method described in Lowry et al., J. Biol. Chem. 1951, 193, 265. The volume of the suspended cell membranes is adjusted to give a tissue protein concentration of 1.0 mg/ml of suspension. The prepared membrane suspension (10 times concentrated) is aliquoted in 1.0 ml volumes and stored at −70° C. until used in subsequent binding experiments.
The reaction is allowed to proceed in the dark for 120 min at room temperature, at which time, the bound ligand-receptor complex is filtered off on a 96-well unifilter with a Packard Filtermate® 196 Harvester. The bound complex caught on the filter disk is allowed to air dry, and the radioactivity is measured in a Packard TopCount® equipped with six photomultiplier detectors, after the addition of 40.0 micoliters Micorscint®-20 scintillant to each shallow well. The unifilter plate is heat-sealed and counted in a Packard TopCount® with a tritium efficiency of 31%.
Specific binding to eh 5-HT6 receptor is defined as the total radioactivity bound less the amount bound in the presence of […] unlabelled methiothipin. Binding in the presence of varying concentrations of test compound is expressed as a percentage of specific binding in the absence of test compound. The results are plotted as log % bound versus log concentration of the test compound. […] A linear regression is plotted, from which the IC50 value is determined, and the Ki value is determined based upon the following equation: Ki=IC50/(1+L/KD) where L is the concentration of the radioactive ligand used and KD is the dissociation constant of the ligand for the receptor, both expressed in nM.
The molecule `CNCCc1c[nH]c2ccc3c(=O)[nH]ccc3c12` [Example 1021, 1-(2-methylaminoethyl)-3H,7H-pyrrolo[3,2-f]isoquinolin-6-one] had a pKi of 7.68.
In turn, `NCCc1c[nH]c2ccc3c(=O)n(Cc4ccsc4)ccc3c12` [Example 274, 1-(2-aminoethyl)-7-thiophen-3-ylmethyl-3H,7H-pyrrolo[3,2-f]isoquinolin-6-one] gave a pKi of 7.96.
`Cn1ccc2c(ccc3[nH]cc(CCN)c32)c1=O` [Example 94] gave a pKi of 7.74.
In turn, `NCCc1c[nH]c2ccc3c(=O)n(Cc4ccccc4)cnc3c12` [Example 1029] showed a pKi of 7.49.
As for `NCCc1c[nH]c2ccc3c(=O)n(Cc4ccccc4)ccc3c12` [Example 182], the pKi is 7.96.
In turn, `NCCc1c[nH]c2ccc3c(=O)n(CC4CCCCC4)ccc3c12` [Example 269, 1-(2-aminoethyl)-7-cyclohexylmethyl-3H,7H-pyrrolo[3,2-]isoquinolin-6-one] showed a pKi of 7.89.

The series is the same for the next values; noted with them: [3H]-LSD displacement, membranes of Hela cells expressing human cloned 5-HT6 receptors; read-out: 5-HT6 binding Ki.
For `O=c1[nH]ccc2c3c(ccc12)N=CC3CCNCc1ccccc1` (stereo not shown) [Example 7A, 1-(2-Benzylaminoethyl)-6,7-dihydro-1H-pyrrolo[3,2-f]isoquinolin-6-one], the pKi is 7.82.

Test system in the next series: not given
Experiment: not given
Settings: not given
Take `NCCc1c[nH]c2ccc3c(=O)n(CCc4ccccc4)ccc3c12` (as salt: hydrochloride): the melting point was 162 to 166 °C.
For the molecule `NCCc1c(Br)[nH]c2ccc3c(=O)[nH]ccc3c12` (as salt: HBr), the melting point was 252 °C (dec.).
Molecule `NCCc1c(-c2ccc(Cl)cc2)[nH]c2ccc3c(=O)[nH]ccc3c12` (as salt: hydrochloride) [Example 278, 1-(2-aminoethyl)-2-(4-chlorophenyl)-3H,7H-pyrrolo[3,2-f]isoquinolin-6-one] showed a melting point of over 300 °C.
Consider `O=c1[nH]ccc2c1ccc1[nH]cc(CCN(Cc3ccccc3)Cc3ccccc3)c12` (as salt: HCl), for which the melting point lay in the range of 250 to 253 °C.
Regarding `O=c1c2ccc3c(c(CCN(Cc4ccccc4)Cc4ccccc4)cn3Cc3ccccc3)c2ccn1Cc1ccccc1` (as salt: HCl) [Example 1018, 3,7-dibenzyl-1-(2-dibenzylaminoethyl)-3H,7H-pyrrolo[3,2-f]isoquinolin-6-one], the melting point lay within 234 to 236 °C.
As to `O=c1c2ccc3[nH]cc(CCNS(=O)(=O)c4ccccc4)c3c2ccn1Cc1ccccc1` [Example 1022, N-[2-(7-benzyl-6-oxo-6,7-dihydro-3H-pyrrolo[3,2-f]isoquinolin-1-yl)-ethyl]-benzenesulfonamide], the melting point fell in the range of 205 to 206 °C.
The same measure, in the same setting: next, `NCCc1c[nH]c2ccc3c(=O)n(CC4CCCCO4)ccc3c12` (stereo not shown) (as salt: hydrochloride): 260 to 262 °C.
For the molecule `NCCc1c[nH]c2ccc3c(=O)n(Cc4ccccc4F)ccc3c12` (as salt: hydrochloride), the melting point was over 250 °C.
Molecule `Cn1cnc2c(ccc3[nH]cc(CCN)c32)c1=O` registered a melting point of 279 to 285 °C.
In turn, `CCn1ccc2c(ccc3[nH]cc(CCN)c32)c1=O` (as salt: hydrochloride) registered a melting point of 224 to 227 °C.
Regarding `NCCc1c[nH]c2ccc3c(=O)n(Cc4ccccc4)cnc3c12` [Example 1029], the melting point was 302 to 305 °C.
In turn, `NCCCc1c[nH]c2ccc3c(=O)[nH]ccc3c12` (as salt: hydrochloride) [Example 268, 1-(3-aminopropyl)-3H,7H-pyrrolo[3,2-f]isoquinolin-6-one] had a melting point of 225 to 230 °C.
For `Cn1ccc2c(ccc3[nH]cc(CCNCCc4ccccc4)c32)c1=O` (as salt: HCl) [Example 95, 7-methyl-1-(2-phenethylaminoethyl)-3H,7H-pyrrolo[3,2-f]isoquinolin-6-one], the melting point fell in the range of 205 to 208 °C.
With `O=c1[nH]ccc2c3c(ccc12)N=CC3CCNCc1ccccc1` (stereo not shown) (as salt: HCl) [Example 7A, 1-(2-Benzylaminoethyl)-6,7-dihydro-1H-pyrrolo[3,2-f]isoquinolin-6-one], the melting point was 210 °C.
Still for that read-out and setting: then `NCCc1c[nH]c2ccc3c(=O)n(CC4CCCCC4)ccc3c12` (as salt: hydrochloride) [Example 269, 1-(2-aminoethyl)-7-cyclohexylmethyl-3H,7H-pyrrolo[3,2-]isoquinolin-6-one], with 220 to 224 °C; and `NCCc1c[nH]c2ccc3c(=O)[nH]ccc3c12` (as salt: hydrochloride), with over 280 °C.
In turn, `NCCc1c[nH]c2ccc3c(=O)n(Cc4ccccc4)ccc3c12` (as salt: hydrochloride) [Example 182] displayed a melting point of 266 to 268 °C.
As for `Cn1ccc2c(ccc3[nH]cc(CCN)c32)c1=O` (as salt: hydrochloride) [Example 94], the melting point is 295 to 298 °C.
For the molecule `CN(CCc1c[nH]c2ccc3c(=O)[nH]ccc3c12)Cc1ccccc1` (as salt: hydrochloride), the melting point was in the range of 152 to 155 °C.
`NCCc1c[nH]c2ccc3c(=O)n(Cc4ccc(F)cc4)ccc3c12` (as salt: hydrochloride) showed a melting point of 247 to 249 °C.
In the case of `CNCCc1c[nH]c2ccc3c(=O)[nH]ccc3c12` (as salt: HCl) [Example 1021, 1-(2-methylaminoethyl)-3H,7H-pyrrolo[3,2-f]isoquinolin-6-one], the melting point was 160 °C.

Source of the values: patent publication US20070099911A1, “Pyrroloquinolinone derivatives as 5-hydroxytryptamine-6 ligands” (Wyeth, priority 2005, published 2007).
